Here are results for 86 compounds from a melting point compilation (Tetko et al.; mined from patent text by program, amines drawn as free bases though some values may be those of a salt).

Some results are limits rather than exact numbers.

As usually defined, the melting point is the temperature, or range, at which the solid turns liquid. With `CS(=O)(=O)NC1CCCc2ccc([N+](=O)[O-])cc21` (stereo unspecified), the melting point is 150 to 152 °C.

In turn, `Cc1ccc(C)c(C2CC(=O)c3c(C)ccnc3C2)c1` (stereo unspecified) displayed a melting point of 95 to 96 °C.

For `C=CCOc1cccc(-c2n[nH]c(-c3ccccc3C)n2)c1`, the melting point lay within 72 to 75 °C.

For the compound `Fc1cc(F)c(COc2cccnc2NC(=S)Nc2ccc(Cl)cc2)c(F)c1`, the melting point fell in the range of 181 to 183 °C.

Regarding `O=C(Nc1ccc2ccc(Cl)nc2n1)c1cncs1`, the melting point worked out at 292 °C.

For the compound `CC(C)(C(=O)NCCn1ccc2ncnc(Nc3ccc(Oc4cccc(C(F)(F)F)c4)c(Cl)c3)c21)S(C)(=O)=O`, the melting point fell in the range of 167 to 168 °C.

In turn, `COc1cc2c(cc1OCc1ccccc1)CCC(=O)N2Cc1cc(OC)c(OC)c(OC)c1` gave a melting point of 129 to 130 °C.

In turn, `CCOC(=O)c1c(Cl)[nH]c(=O)c(I)c1Oc1cc(C)cc(C)c1` yielded a melting point of 180 to 182 °C.

`Cc1cc(NCc2ccc(Oc3ccc4ncc([N+](=O)[O-])n4n3)c(OCC3CC3)c2)nc(C)n1` came in with a melting point of 113 to 118 °C.

As to `CCOC(=O)c1ccc(C(=O)OCC)c2cc3ccccc3cc12`, the melting point was 99 to 100 °C.

Regarding `N#Cc1ccc(Br)cc1Br`, the melting point is 76 to 78 °C.

With `CS(=O)(=O)c1ccc(-c2ncccc2C(=O)c2ccccn2)cc1`, the melting point lay in the range of 143 to 147 °C.

Turning to `NC(=O)c1ccc(F)c2c1OCC(N(CCCc1c[nH]c3ccc(F)cc13)C1CCC1)C2` (stereo unspecified), the melting point came out at 132 °C.

Regarding `CC(C(=O)O)c1ccc2oc(-c3ccccc3)nc2c1` (stereo unspecified), the melting point fell in the range of 177 to 179 °C.

`CC(C)c1nc(COC(N)=O)n(CCOC(N)=O)c1Sc1cc(Cl)cc(Cl)c1` showed a melting point of 159 to 161 °C.

In the case of `CCOC(=O)NC(=S)CNc1ccc(C(=O)OC)c(S(=O)(=O)NC(=O)Nc2nc(OC)cc(OC)n2)c1`, the melting point lay within 144 to 145 °C.

Consider `COC(=O)C1=C(C)NC(C)C(C(=O)OC)=C1c1cc(Cl)ccc1COCc1ccccc1` (stereo unspecified), for which the melting point was 156 to 158 °C.

`CSC1C(=O)Nc2c(C(=O)c3ccc(F)cc3)cc(Cl)cc21` (stereo unspecified): the melting point was 202 to 204 °C.

Compound `CCNC(=O)c1cccc(C2(c3ccc(OC(F)(F)F)cc3)N=C(N)N3CCCN=C32)c1` (stereo unspecified) had a melting point of 129 to 136 °C.

As to `CC(C)(C)OC(=O)Nc1ccc2nc(N3CCOCC3)nn2c1`, the melting point was found to be 166 °C.

Regarding `O=C(Nc1cn2cc(-n3ccnc3)ccc2n1)c1ccc(-c2ccoc2)cc1`, the melting point lay within 261 to 263 °C.

`CCCSc1ncc(CO)n1Cc1ccc(-c2ccccc2C(=O)O)cc1`: the melting point lay within 194 to 195 °C.

For `CC(=O)Nc1ccc(OCCCBr)cc1`, the melting point came out at 120 °C.

In the case of `CC(C)CN1CCN(c2cc3ccccc3c(=O)[nH]2)CC1CO` (stereo unspecified), the melting point was 130 to 132 °C.

Regarding `CCC(=C(c1ccccc1)c1ccc(OCC(O)CO)cc1)C1CCCC1` (stereo unspecified), the melting point is 89 to 91 °C.

`COc1ccc(-c2ccc3c(C(=O)N(C)C)c(-c4ccccc4)ccc3c2)cc1` showed a melting point of 171 to 173 °C.

Regarding `CC1=C(c2cccc(C(F)(F)F)c2)n2ncc(C(N)=O)c2NC1`, the melting point lay in the range of 200 to 202 °C.

For the compound `c1ccc2c(c1)OCC(CN1CCC(CNc3nc4cc5c(cc4s3)OCO5)CC1)O2` (stereo unspecified), the melting point was 160 °C.

On to `NC(=O)[C@H]1NC(=O)[C@H]1NC(=O)OCc1ccccc1`, for which the melting point was 248 to 249 °C.

`CCn1nccc1C(=O)Nc1cc(Oc2ccc3nc(NC(=O)C4CC4)cn3n2)ccc1F` had a melting point of 209 °C.

Consider `CC(C)CNc1nc2c(n1C)C(=O)N1CCN=C1N2Cc1ccc(Cl)cc1`, for which the melting point was 185 to 187 °C.

Compound `O=C(CN1CCN(CCSc2nc3cccc(C(F)(F)F)c3o2)CC1)Nc1c(C(F)(F)F)cc(OCc2ccccc2)cc1C(F)(F)F` gave a melting point of 156 to 158 °C.

The compound `N#Cc1cc(C(=O)N=C(N)N)cc(-n2cccc2)c1` returned a melting point of 198 to 200 °C.

Take `COc1ccc(N2C(=O)N(C(C)CO)c3nc(Nc4ccccc4)ncc3C2C)cc1` (stereo unspecified): the melting point is 165 to 180 °C.

Take `CSc1nc(=O)n(Cc2ccccc2)c2nc[nH]c12`: the melting point is 215 to 216 °C.

As to `COc1ccnc(CCc2nc3cc(-c4ccc(S(=O)(=O)N5CCN(c6ccc(C)cc6)CC5)cc4)cnc3[nH]2)c1`, the melting point was in the range of 150 to 154 °C.

`COC1(c2cncnc2SC)c2ccccc2CC1(C)C` (stereo unspecified) showed a melting point of 130 to 132 °C.

Regarding `CCCc1cc2c(NC(=S)N3Cc4ccccc4CC3CCO)cccc2cn1` (racemic), the melting point worked out at 175 °C.

The compound `CCc1nc(/C=C/c2cn(-c3ccccc3)nc2OCc2ccc(OCc3nc(-c4cccc(C#N)c4)oc3C)c(OC)c2)cs1` yielded a melting point of 138 to 140 °C.

`N#Cc1cccc2c1COc1ccc(OCc3ccc4ccc(Cl)cc4n3)cc1C2SCCC(=O)O` (stereo unspecified) displayed a melting point of 193 to 195 °C.

In the case of `CS(=O)(=O)c1ccc(-c2ccc(Br)n2-c2ccc(F)cc2)cc1`, the melting point is 174 to 176 °C.

In turn, `CCCCNC(=O)Nc1ccccc1NC(=O)NCCCC` yielded a melting point of 163 to 164 °C.

As for `COc1c(N)nc(Cl)nc1Cl`, the melting point fell in the range of 155 to 156 °C.

The compound `CCOC(=O)CCn1c(-c2ccc(F)cc2)cc2ccccc2c1=O` yielded a melting point of 125 to 126 °C.

For `Cn1ncc(C(=O)N[C@H]2CCOC2)c1C(=O)Nc1ccn2nc(-c3ccccc3)nc2c1`, the melting point was greater than 250 °C.

In turn, `COc1ccc(Br)c(C(=O)N2CCN(S(=O)(=O)c3ccccc3F)CC2)c1` returned a melting point of 167 °C.

As to `COc1ccc(-c2cc3ncccc3c(O)n2)cc1`, the melting point is 295 to 298 °C.

For the compound `Cc1nnc([C@H](Nc2ccc(C#N)c(Cl)c2C)[C@H](C)O)o1`, the melting point was in the range of 181 to 183 °C.

`N=C(N)c1ccc2cc(OC(=O)[C@H]3CC[C@H](CN)CC3)ccc2c1` came in with a melting point of 147 °C.

On to `N#Cc1ccc(NC(=O)c2cccc(OCc3ccc(C(F)(F)F)cc3)c2)cc1`, for which the melting point fell in the range of 167 to 168 °C.

`O=c1[nH]c2ccc(Cl)cc2s1`: the melting point was 212 to 213 °C.

Turning to `CCc1cc2c(=O)c(C(=O)O)cn(Cc3ccc(-c4ccccc4-c4nnn[nH]4)cc3)c2s1`, the melting point lay in the range of 153 to 157 °C.

In turn, `CCS(=O)c1ccccc1S(=O)(=O)NC(=O)Nc1nc(OC)nc(OC)n1` (stereo unspecified) gave a melting point of 165 °C.

In turn, `Cc1ccn2c(C)c(CCc3ccc4nc(N)oc4c3)nc2c1` came in with a melting point of 244 to 246 °C.

`CNc1nc(-c2cccc(-c3ccc4nccn4c3)c2)c2cc(OC)c(OC)cc2n1` had a melting point of 237 to 239 °C.

Compound `COc1ccc2cc3c(N)nn(CN(C)C)c3nc2c1` registered a melting point of 156 to 158 °C.

For the compound `COc1ccc(CCOc2cccc(-c3cccc(N)c3)n2)cc1OC`, the melting point is 103 to 104 °C.

As for `O=C(c1ccccc1)c1ccc2nc(-c3ccc(Br)o3)[nH]c2c1`, the melting point fell in the range of 167 to 172 °C.

For `C#CC1(O)CCC2C3CCC4=CC(=O)CCC4C3CCC21CCC` (stereo unspecified), the melting point was 149 to 150 °C.

In turn, `COc1ccc(CCNC(=O)C2CCC2)cc1` showed a melting point of 118 to 120 °C.

Consider `COC=C(C(=O)OC)C1(c2ccc(OC)cc2)CC=C2C=CC=C2O1` (stereo unspecified), for which the melting point stood at 124 °C.

For `COP(=O)(CC(COc1cccc(C(F)(F)F)c1)=NNC(N)=O)OC`, the melting point was 132 to 133 °C.

`CCCNc1ncnc2c1ncn2Cc1ccc(OC)c(OC)c1` showed a melting point of 117 to 120 °C.

As to `CCn1ncc2cc3c(nc21)C(O)c1ccccc1CC3` (stereo unspecified), the melting point is 130 to 132 °C.

In turn, `Cc1cnc(C(=O)c2[nH]c3ccc(Cl)cc3c2CC(=O)O)s1` displayed a melting point of 231 to 233 °C.

Compound `COC(=O)c1c(Cl)nc(N2CCC(O)CC2)nc1NCc1ccc(OC)c(Cl)c1` came in with a melting point of 138 to 139 °C.

Regarding `CC(=O)N(O)C(C)c1ccc(-c2ccc(OCc3nc4ccccc4s3)cc2)cc1` (stereo unspecified), the melting point was in the range of 197 to 199 °C.

As for `Cn1cc(C(=O)NCc2ccc(Cl)cc2)c(=O)c2cc(/C=C\CO)cc(F)c21`, the melting point lay within 182 to 184 °C.

For the compound `CCOC(=O)Cn1c(=O)n(S(=O)(=O)c2ccc(Cl)cc2)c(=O)c2ccccc21`, the melting point is 208 to 209 °C.

In the case of `Cc1ccc(C(=O)OCCO)cc1-n1c(C)cc(OCc2ccc(F)cc2CNC(=O)Nc2cc(C(C)(C)C)nn2-c2cccc(OCCO)c2)c(Cl)c1=O`, the melting point is 180 to 181 °C.

Take `CCCCCCCCCCCCCCCCCC(=O)c1ccc(C2=NC(C)(C)CO2)cc1`: the melting point was 73 to 76 °C.

For the compound `CCO[PH](=O)CN(C)c1cc(Oc2ccc(C(F)(F)F)cc2Cl)ccc1[N+](=O)[O-]` (stereo unspecified), the melting point lay in the range of 118 to 120 °C.

The compound `OCc1cnoc1-c1ccc(Br)cc1` gave a melting point of 104 to 105 °C.

`O=c1n(CCCF)nnn1-c1ccc(Cl)cc1F` displayed a melting point of 62 to 63 °C.

`Cc1noc(C)c1-c1cccc2c1C1(COc3cc4c(cc31)OCCO4)C(=O)N2C` (stereo unspecified) displayed a melting point of 228 to 230 °C.

Compound `O=Cc1cc(-c2ccccc2)nn1Cc1ccc(Cl)cc1Cl` returned a melting point of 135 to 137 °C.

Consider `CC(=O)OC1CC(C)(C)N(OC(C)=O)C(C)(C)C1`, for which the melting point is 72 to 73 °C.

Compound `FC(F)(F)C(c1ccc(Cl)cc1)C(Br)c1ccccc1` (stereo unspecified) gave a melting point of 143 to 146 °C.

Turning to `CS(=O)c1ccc(S(=O)(=O)N2CCCC(c3ccccc3)=N2)cc1` (stereo unspecified), the melting point fell in the range of 137 to 139 °C.

In the case of `Clc1ncc(C(c2ccccc2)c2ccccc2)cc1C(c1ccccc1)c1ccccc1`, the melting point lay in the range of 131 to 133 °C.

In the case of `COc1cccc(-c2cnn(-c3ccccn3)c2)c1`, the melting point lay within 89 to 90 °C.

`COc1ccc2c(c1OC)CC[C@@H]1NC(=O)CC[C@H]21` (relative stereo) showed a melting point of 243 to 245 °C.

In turn, `CC(=O)Oc1nc(-c2ccc(C)cc2)sc1-c1ccccc1` registered a melting point of 122 to 125 °C.

Compound `CCCC1NS(=O)(=O)N(COC(=O)c2c(Cl)cccc2Cl)C1=O` (stereo unspecified) registered a melting point of 95 to 97 °C.

As for `CCOC(=O)CNC(=S)NC(Cc1ccc(OC)cc1)=Nc1ccccc1`, the melting point fell in the range of 120 to 121 °C.

Turning to `CN1C(=O)[C@@H](NC(=O)c2ccc(C(F)(F)F)cc2)N=C(c2ccccc2)c2ccccc21`, the melting point fell in the range of 125 to 127 °C.
